Assay results taken from ChEMBL document CHEMBL1151634, “Phytochemical and biological screening of Saudi medicinal plants, Part 6. Isolation of 2 alpha-hydroxyalantolactone the antileukemic principle of Francoeuria crispa” (1984).
Values after ≈ are worked out from the molar mass of the structure shown.

Legend:
Format in all cases: functional
[1] = tested on: Staphylococcus aureus; test: Antibacterial activity against Staphylococcus aureus NCTC 6571 after overnight incubation by tube dilution method
[2] = Cytotoxicity against mouse 9PS cells
[3] = tested on: P388; test: In vivo cytotoxicity against mouse P388 cells at 75 mg/kg relative to control
[4] = Cytotoxicity against human 9KB cells

Compound `C=C1C(=O)O[C@@H]2C[C@@]3(C)C[C@@H](O)C[C@H](C)C3=C[C@H]12` has an MIC [1] of 0.625 µg/mL (≈ 2.52 µM), an Activity [2] of 2 µg/mL and a T/C [3] of 123%. It also gave an Activity [4] of 2 ×10⁻¹ ug/ml.
